Assay [1] relates to cardiac myocytes. In words: Induction of endogenous MGF expression by PMA, real time RT-PCR. Type of assay: cell-based. How it is done:
Primary cultures of cardiac myocytes were cultured in serum free media for 24 hours prior to the addition of PMA (200 nM). After 30 min total RNA was extracted and MGF gene expression was assayed using real time RT-PCR. […] B. A repeat of the initial experiment but in the third group PMA was added to the cultures without changing the media. MGF expression is increased to a great extent than when PMA is added with fresh media.
In order to investigate which signal appear to modulate MGF expression in cardiac myocytes, several drugs were applied to cardiomyocyte cultures. These in turn activate signal transduction molecules either directly or indirectly through receptor coupled molecules. One such drug is phorbol myristate acetate (PMA), a phorbol ester that specifically activates the Protein Kinase C family of serine/threonine signaling kinases. […] When the amount of MGF is compared to the amount of liver-type IGF in the control conditions, there is substantially less in the cardiac myocytes. […] When the same experiment was repeated but the PMA was added to myocyte cultures in which the media had not been changed for 24 hours prior to the addition of the PMA, the increase in MGF expression is even greater than when PMA is added along with fresh media (FIG. 5B).
A general note: Quantitative PCR measures a nucleic acid by following its amplification.

For assay [2] the following is noted: animal models of cardiomyopathy and clinical trials; cited from earlier work.
For assay [3] the following is noted: rats, recombinant L.IGF-I administered after ischemia; cited from earlier work.

As for `CCCCCCCCCCCCCC(=O)O[C@@H]1[C@@H](C)[C@@]2(O)[C@@H](C=C(CO)C[C@]3(O)C(=O)C(C)=C[C@@H]23)[C@@H]2C(C)(C)[C@]12OC(C)=O` [PMA, phorbol myristate acetate], in assay [1] (PMA 200 nM, 30 min), the “level of IGF expression” value is on record as “does not change”. Besides, the “expression of the endogenous MGF gene” value in assay [1] (PMA 200 nM, 30 min, serum free media 24 hours, added with fresh media) was “significant increase”. In assay [1] (PMA added to cultures whose media had not been changed for 24 hours, versus PMA with fresh media), the “increase in MGF expression, media not changed” value is recorded as “even greater”. With “growth hormone: growth hormone; induces expression of systemic insulin-like growth factors via the liver”, the cardiac function result in assay [2] is reported as “Significant improvement”. Consider “recombinant L.IGF-I: recombinant systemic, liver-type IGF-I”, for which, in assay [3], the “cell death following transient myocardial ischemia” value is “reduced cell death”.

The record behind these values is patent US9919031B2, “Use of the insulin-like-growth factor 1 splice variant MGF for the prevention of myocardial damage” (THE BOARD OF TRUSTEES OF UNIVERSITY OF ILLINOIS, priority 2002, dated 2018).
